Earlier results, collected in patent publication US8283180B2, “Periodic acid-schiff staining with detection in the infrared range” (Amicus Therapeutics, Inc., priority 2007, dated 2012).

Assays:
[1] = test system: Japanese medaka (Oryzias latipes); settings: low DCA exposure concentrations; as early as week two of exposure

Compound | left-ventricular mass index (infantile Pompe disease) | motor function by the Alberta Infant Motor Scale (AIMS) (infantile Pompe disease; unblinded assessment) | carcinogenicity (mice) | carcinogenicity (rats) | changes in the liver [1]
Myozyme: enzyme replacement therapy with recombinant α-glucosidase, approved for infantile Pompe disease | improved with treatment | did not improve with treatment |  |  | 
O=C(O)C(Cl)Cl [DCA, dichloroacetic acid] |  |  | carcinogenic | carcinogenic | marked hepatocellular cytoplasmic vacuolation, cytomegaly, karyomegaly, nuclear atypia and multifocal areas of hepatocellular necrosis and loss
